Among the data in patent publication US20240409585A1, “MACROCYCLIC IMMUNOMODULATORS” (priority 2021, published 2024) are IC50 values, retold here.

Molecules are shown by their SMILES. Bridge positions count the residues as written; N and C are the ends. Square brackets hold non-standard residues; d marks the D form. Peptide text beside a SMILES is read from it. * marks the point of attachment. ξ: configuration not given here. Phe(4-(4-F-Ph)) = N[C@@H](Cc1ccc(-c2ccc(F)cc2)cc1)C(=O)O; Bip = N[C@@H](Cc1ccc(-c2ccccc2)cc1)C(=O)O; Phe(3-CN) = N#Cc1cccc(C[C@H](N)C(=O)O)c1; Phe(3-Me) = Cc1cccc(C[C@H](N)C(=O)O)c1; Val(3-OH) = CC(C)(O)[C@H](N)C(=O)O; NMeF = CN[C@@H](Cc1ccccc1)C(=O)O; 4Pal = N[C@@H](Cc1ccncc1)C(=O)O; Cha = N[C@@H](CC1CCCCC1)C(=O)O; Cit = NC(=O)NCCC[C@H](N)C(=O)O; Ile(3ξ) = CCC(C)[C@H](N)C(=O)O; Thr(3ξ) = CC(O)[C@H](N)C(=O)O; Carboxymethyl = O=C(O)C*; NMeA = CN[C@@H](C)C(=O)O; Orn = NCCC[C@H](N)C(=O)O; Pra = C#CC[C@H](N)C(=O)O; Dab = NCC[C@H](N)C(=O)O

The first experiment deals with T1, PE-labeled human PD-L1-Ig binding to Jurkat cell line over-expressing human PD-1 (Jurkat-PD-1) (Homo sapiens, UniProt Q15116).
T1 construct: expressed in transfected cells; host or cells: Jurkat
T1 sequence (Q15116 25-288): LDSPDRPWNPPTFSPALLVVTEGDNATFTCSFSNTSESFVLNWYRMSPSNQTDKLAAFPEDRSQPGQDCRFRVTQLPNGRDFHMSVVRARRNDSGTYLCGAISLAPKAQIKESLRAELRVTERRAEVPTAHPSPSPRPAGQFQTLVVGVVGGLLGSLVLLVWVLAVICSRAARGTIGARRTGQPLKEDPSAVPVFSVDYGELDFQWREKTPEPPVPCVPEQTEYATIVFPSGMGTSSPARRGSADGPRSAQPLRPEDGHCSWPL
The experiment is described as follows: Jurkat-PD-1 Cell Binding High-Content Screening Assay (CBA): Method 1. As to conditions: Jurkat HPDL1 PD1 IC50 (uM) (Method 1), Jurkat-hPD-1 cells, PE-labeled PD-L1-Ig 20 nM final.
Experimental: Phycoerythrin (PE) was covalently linked to the Ig epitope tag of human PD-L1-Ig and fluorescently-labeled PD-L1-Ig was used for binding studies with a Jurkat cell line over-expressing human PD-1 (Jurkat-PD-1). Briefly, 8×10^3 Jurkat-hPD-1 cells were seeded into 384 well plates in 20 μl of DMEM supplemented with 10% fetal calf serum. 100 nl of compound was added to cells followed by incubation at 37° C. for 2 hours. Then, 5 μl of PE-labeled PD-L1-Ig (20 nM final), diluted in DMEM supplemented with 10% fetal calf serum. […] Data was collected and processed using a Cell Insight NXT High Content Imager and associated software.
Regarding `CC(C)C[C@@H]1NC(=O)[C@H](CCN)NC(=O)[C@@H](CC(C)C)NC(=O)[C@H](C)N(C)C(=O)[C@H](CCCNC(=N)N)NC(=O)[C@H](Cc2ccc(-c3ccccc3)cc2)NC(=O)[C@H](C(C)C)NC(=O)[C@H](Cc2c[nH]c3ccccc23)NC(=O)[C@H](CC(=O)O)NC(=O)[C@H](Cc2ccc(O)cc2)NC(=O)[C@H](Cc2ccccc2)NC(=O)CSC[C@@H](C(=O)N[C@@H](C)C(N)=O)NC(=O)[C@H](CO)NC(=O)[C@H](C(C)C)NC1=O` [Compound 1030] ({CH2CO}-FYDWV[Bip]R[NMeA][dL][Dab]LVSCA-NH2; thioether N-14), the IC50 turned out to be 0.03 µM.

The same experiment, now with this note: Jurkat-hPD-1 cells, PE-labeled PD-L1-Ig 20 nM final; read-out: Jurkat HPDL1 PD1 IC50 (uM) (Method 1).
As to `CC[C@H](C)[C@@H]1NC(=O)[C@H](Cc2ccc(-c3ccccc3)cc2)NC(=O)[C@H](C(C)C)NC(=O)[C@H](Cc2c[nH]c3ccccc23)NC(=O)[C@H](CC(=O)O)NC(=O)[C@H](Cc2ccc(O)cc2)NC(=O)[C@H](CC(N)=O)NC(=O)CSC[C@@H](C(=O)N[C@@H](C)C(N)=O)NC(=O)[C@H]([C@@H](C)O)NC(=O)[C@H](C(C)C)NC(=O)[C@H](CC(C)C)NC(=O)[C@H](CCCNC(=N)N)NC(=O)[C@@H](CC(C)C)NC(=O)[C@H](C)N(C)C1=O` [Compound 1490] ({CH2CO}-NYDWV[Bip]I[NMeA][dL]RLVTCA-NH2; thioether N-14), the IC50 came to 0.07 µM.

As to `CC(C)C[C@@H]1NC(=O)[C@H](CC(N)=O)NC(=O)[C@@H](CC(C)C)NC(=O)[C@H](C)N(C)C(=O)[C@H](C(C)C)NC(=O)[C@H](Cc2ccc(-c3ccccc3)cc2)NC(=O)[C@H](CCN)NC(=O)[C@H](Cc2c[nH]c3ccccc23)NC(=O)[C@H](CC(=O)O)NC(=O)[C@H](Cc2ccc(O)cc2)NC(=O)[C@H](Cc2ccccc2)NC(=O)CSC[C@@H](C(=O)N[C@@H](C)C(N)=O)NC(=O)[C@H](CO)NC(=O)[C@H](CC(=O)O)NC1=O` [Compound 2026] ({CH2CO}-FYDW[Dab][Bip]V[NMeA][dL]NLDSCA-NH2; thioether N-14), the IC50 came to 0.12 µM.

As to `Cc1cccc(C[C@@H]2NC(=O)[C@H](CC(=O)O)NC(=O)[C@H](Cc3ccc(OCC(=O)O)cc3)NC(=O)[C@H](C(C)O)NC(=O)CSC[C@@H](C(N)=O)NC(=O)[C@H](CCCCN)NC(=O)[C@H](C(C)C)NC(=O)[C@H](CC(C)C)NC(=O)[C@H](CC(N)=O)NC(=O)[C@@H](CC(C)C)NC(=O)[C@H](C)N(C)C(=O)[C@H](C(C)C)NC(=O)[C@H](Cc3ccc(-c4ccccc4)cc3)NC(=O)[C@H](CC(C)C)NC2=O)c1` (stereo partly drawn) [Compound 2259] ({CH2CO}-[Thr(3ξ)]Y(Carboxymethyl)D[Phe(3-Me)]L[Bip]V[NMeA][dL]NLVKC-NH2; thioether N-14), the IC50 was found to be 0.1 µM.

In the case of `CC(C)C[C@@H]1NC(=O)[C@H](CCCNC(=N)N)NC(=O)[C@@H](CC(C)C)NC(=O)[C@H](C)N(C)C(=O)[C@H](CCCN)NC(=O)[C@H](Cc2ccc(-c3ccccc3)cc2)NC(=O)[C@H](C(C)C)NC(=O)[C@H](Cc2c[nH]c3ccccc23)NC(=O)[C@H](CC(=O)O)NC(=O)[C@H](Cc2ccc(O)cc2)NC(=O)[C@H](CC(N)=O)NC(=O)CSC[C@@H](C(=O)N[C@@H](C)C(N)=O)NC(=O)[C@H]([C@@H](C)O)NC(=O)[C@H](C(C)C)NC1=O` [Compound 1288] ({CH2CO}-NYDWV[Bip][Orn][NMeA][dL]RLVTCA-NH2; thioether N-14), the 50% inhibitory concentration (IC50) was found to be 0.08 µM.

Take `CC(C)C[C@@H]1NC(=O)[C@H](Cc2c[nH]c3ccccc23)NC(=O)[C@H](CC(=O)O)NC(=O)[C@H](Cc2ccc(O)cc2)NC(=O)[C@H](Cc2ccccc2)NC(=O)CSC[C@@H](C(=O)N[C@@H](C)C(N)=O)NC(=O)[C@H](CO)NC(=O)[C@H](C(C)C)NC(=O)[C@H](CC(C)C)NC(=O)[C@H](CC(=O)O)NC(=O)[C@@H](C)NC(=O)[C@H](C)N(C)C(=O)[C@H](C(C)C)NC(=O)[C@H](Cc2ccc(-c3ccc(F)cc3)cc2)NC1=O` [Compound 1825] ({CH2CO}-FYDWL[Phe(4-(4-F-Ph))]V[NMeA][dA]DLVSCA-NH2; thioether N-14): the IC50 was 0.66 µM.

Turning to `CCC(C)[C@@H]1NC(=O)[C@H](Cc2ccc(-c3ccccc3)cc2)NC(=O)[C@H](C(C)C)NC(=O)[C@H](Cc2c[nH]c3ccccc23)NC(=O)[C@H](CC(=O)O)NC(=O)[C@H](Cc2ccc(O)cc2)NC(=O)[C@H](CC(N)=O)NC(=O)CSC[C@@H](C(=O)N[C@@H](C)C(N)=O)NC(=O)[C@H](CO)NC(=O)[C@H](C(C)C)NC(=O)[C@H](CC(C)C)NC(=O)[C@H](CCN)NC(=O)[C@@H](CC(C)C)NC(=O)[C@H](C)N(C)C1=O` (stereo partly drawn) [Compound 2070] ({CH2CO}-NYDWV[Bip][Ile(3ξ)][NMeA][dL][Dab]LVSCA-NH2; thioether N-14), the IC50 is 0.05 µM.

With `CC(C)C[C@@H]1NC(=O)[C@H](CCN)NC(=O)[C@@H](CC(C)C)NC(=O)[C@H](C)N(C)C(=O)[C@H](CCCNC(N)=O)NC(=O)[C@H](Cc2ccc(-c3ccccc3)cc2)NC(=O)[C@H](C(C)C)NC(=O)[C@H](Cc2c[nH]c3ccccc23)NC(=O)[C@H](CC(=O)O)NC(=O)[C@H](Cc2ccc(O)cc2)NC(=O)[C@H](CCN)NC(=O)CSC[C@@H](C(=O)N[C@@H](C)C(N)=O)NC(=O)[C@H]([C@@H](C)O)NC(=O)[C@H](C(C)C)NC1=O` [Compound 1346] ({CH2CO}-[Dab]YDWV[Bip][Cit][NMeA][dL][Dab]LVTCA-NH2; thioether N-14), the IC50 was found to be 0.07 µM.

As for `CCC(C)[C@@H]1NC(=O)[C@H](Cc2ccc(-c3ccccc3)cc2)NC(=O)[C@H](CC(C)C)NC(=O)[C@H](Cc2c[nH]c3ccccc23)NC(=O)[C@H](CC(=O)O)NC(=O)[C@H](Cc2ccc(OCC(=O)O)cc2)NC(=O)[C@H](C(C)O)NC(=O)CSC[C@@H](C(=O)N[C@@H](CC(N)=O)C(=O)O)NC(=O)[C@H](CC(C)C)NC(=O)[C@H](C(C)C)NC(=O)[C@H](CC(C)C)NC(=O)[C@H](CCN)NC(=O)[C@@H](CC(C)C)NC(=O)[C@H](C)N(C)C1=O` (stereo partly drawn) [Compound 2224] ({CH2CO}-[Thr(3ξ)]Y(Carboxymethyl)DWL[Bip][Ile(3ξ)][NMeA][dL][Dab]LVLCN-OH; thioether N-14), the IC50 amounted to 0.24 µM.

As for `CC(C)C[C@@H]1NC(=O)[C@H](Cc2c[nH]c3ccccc23)NC(=O)[C@H](CC(=O)O)NC(=O)[C@H](Cc2cccc(C#N)c2)NC(=O)[C@H](Cc2ccccc2)NC(=O)CSC[C@@H](C(=O)N[C@@H](C)C(N)=O)NC(=O)[C@H](CO)NC(=O)[C@H](C(C)C)NC(=O)[C@H](CC(C)C)NC(=O)[C@H](CC(N)=O)NC(=O)[C@@H](C)NC(=O)[C@H](C)N(C)C(=O)[C@H](C(C)C)NC(=O)[C@H](Cc2ccc(-c3ccccc3)cc2)NC1=O` [Compound 1723] ({CH2CO}-F[Phe(3-CN)]DWL[Bip]V[NMeA][dA]NLVSCA-NH2; thioether N-14), the IC50 is 0.01 µM.

Regarding `CC(C)C[C@@H]1NC(=O)[C@H](Cc2c[nH]c3ccccc23)NC(=O)[C@H](CC(=O)O)NC(=O)[C@H](Cc2ccncc2)NC(=O)[C@H](Cc2ccc(OCC(=O)O)cc2)NC(=O)CSC[C@@H](C(=O)N[C@@H](C)C(N)=O)NC(=O)[C@H](CO)NC(=O)[C@H](C(C)C)NC(=O)[C@H](CC(C)C)NC(=O)[C@H](CC(N)=O)NC(=O)[C@@H](C)NC(=O)[C@H](C)N(C)C(=O)[C@H](C(C)C)NC(=O)[C@H](Cc2ccc(-c3ccccc3)cc2)NC1=O` [Compound 1564] ({CH2CO}-Y(Carboxymethyl)[4Pal]DWL[Bip]V[NMeA][dA]NLVSCA-NH2; thioether N-14), the IC50 was determined as 0.01 µM.

For the compound `CC(C)C[C@@H]1NC(=O)[C@H](CCCNC(=N)N)NC(=O)[C@@H](CC(C)C)NC(=O)[C@H](C)N(C)C(=O)[C@H](CCC(=O)O)NC(=O)[C@H](Cc2ccc(-c3ccccc3)cc2)NC(=O)[C@H](C(C)C)NC(=O)[C@H](Cc2c[nH]c3ccccc23)NC(=O)[C@H](CC(=O)O)NC(=O)[C@H](Cc2ccc(O)cc2)NC(=O)[C@H](CC(N)=O)NC(=O)CSC[C@@H](C(=O)N[C@@H](C)C(N)=O)NC(=O)[C@H](CO)NC(=O)[C@H](C(C)C)NC1=O` [Compound 1256] ({CH2CO}-NYDWV[Bip]E[NMeA][dL]RLVSCA-NH2; thioether N-14), the IC50 worked out at 0.06 µM.

`CC(C)C[C@@H]1NC(=O)[C@H](CCN)NC(=O)[C@@H](CC(C)C)NC(=O)[C@H](C)N(C)C(=O)[C@H](CCC(=O)O)NC(=O)[C@H](Cc2ccc(-c3ccccc3)cc2)NC(=O)[C@H](C(C)C)NC(=O)[C@H](Cc2c[nH]c3ccccc23)NC(=O)[C@H](CC(=O)O)NC(=O)[C@H](Cc2ccc(O)cc2)NC(=O)[C@H](CC(N)=O)NC(=O)CSC[C@@H](C(=O)N[C@@H](C)C(N)=O)NC(=O)[C@H](CCCN)NC(=O)[C@H](C(C)C)NC1=O` [Compound 1238] ({CH2CO}-NYDWV[Bip]E[NMeA][dL][Dab]LV[Orn]CA-NH2; thioether N-14): the IC50 came out at 0.03 µM.

On to `Cc1cccc(C[C@@H]2NC(=O)[C@H](CC(=O)O)NC(=O)[C@H](Cc3ccc(OCC(=O)O)cc3)NC(=O)[C@H](Cc3ccccc3)N(C)C(=O)CSC[C@@H](C(=O)N[C@@H](CCN)C(N)=O)NC(=O)[C@H](CO)NC(=O)[C@H](C(C)C)NC(=O)[C@H](CC3CCCCC3)NC(=O)[C@H](CCN)NC(=O)[C@@H](CC(C)C)NC(=O)[C@H](C)N(C)C(=O)[C@H](Cc3ccc(OCC(=O)O)cc3)NC(=O)[C@H](Cc3ccc(-c4ccccc4)cc3)NC(=O)[C@H](Cc3ccc(OCC(=O)O)cc3)NC2=O)c1` [Compound 1861] ({CH2CO}-[NMeF]Y(Carboxymethyl)D[Phe(3-Me)]Y(Carboxymethyl)[Bip]Y(Carboxymethyl)[NMeA][dL][Dab][Cha]VSC[Dab]-NH2; thioether N-14), for which the IC50 stood at 0.1 µM.

For the compound `C#CC[C@H](NC(=O)[C@@H](C)NC(=O)[C@@H]1CSCC(=O)N[C@@H]([C@@H](C)O)C(=O)N[C@@H](Cc2ccc(OCC(=O)O)cc2)C(=O)N[C@@H](CC(=O)O)C(=O)N[C@@H](Cc2cccc(C)c2)C(=O)N[C@@H](Cc2ccc(OCC(=O)O)cc2)C(=O)N[C@@H](Cc2ccc(-c3ccccc3)cc2)C(=O)N[C@@H](Cc2ccc(OCC(=O)O)cc2)C(=O)N(C)[C@@H](C)C(=O)N[C@H](CC(C)C)C(=O)N[C@@H](CCN)C(=O)N[C@@H](CC2CCCCC2)C(=O)N[C@@H](C(C)(C)O)C(=O)N[C@@H](CCC(=O)O)C(=O)N1)C(N)=O` [Compound 1945] ({CH2CO}-TY(Carboxymethyl)D[Phe(3-Me)]Y(Carboxymethyl)[Bip]Y(Carboxymethyl)[NMeA][dL][Dab][Cha][Val(3-OH)]EC[dA][Pra]-NH2; thioether N-14), the IC50 is 0.93 µM.
